Measurements as given in patent US20020076736A1, “Methods of affecting laminin 5 processing” (priority 2000, published 2002).
Entries after “also recorded” stand apart in the source; their conditions may differ. Values belong to the molecule of their own block, whether it stands above or below them.

Assays:
[1] = biological target: unprocessed human laminin 5 (α3 chain of 200 kDa, β3 chain of 140 kDa, γ2 chain of 155 kDa) (UniProt Q16787)
MMP-9 = MMP-9 (Homo sapiens, UniProt P14780); assay: Inhibition of MMP-9 activity; assay type: biochemical
cultured cells = assay: Toxicity to cultured cells; assay type: cell-based; details: for toxicity to cultured cells at 100 times inhibitory levels: 100 times the concentration which inhibited BMP-1 activity; for toxic effect on cells: cell culture
squamous carcinoma cells = assay: Migration of squamous carcinoma cells (general statement); assay type: cell-based
MT1-MMP = MT1-MMP (Homo sapiens, UniProt P50281); assay: Inhibition of MT1-MMP activity; assay type: biochemical
MMP-1 = biological target: T1, MMP-1 (Homo sapiens, UniProt P03956); assay: Inhibition of MMP-1 activity; assay type: biochemical
T1 sequence (P03956 100-469): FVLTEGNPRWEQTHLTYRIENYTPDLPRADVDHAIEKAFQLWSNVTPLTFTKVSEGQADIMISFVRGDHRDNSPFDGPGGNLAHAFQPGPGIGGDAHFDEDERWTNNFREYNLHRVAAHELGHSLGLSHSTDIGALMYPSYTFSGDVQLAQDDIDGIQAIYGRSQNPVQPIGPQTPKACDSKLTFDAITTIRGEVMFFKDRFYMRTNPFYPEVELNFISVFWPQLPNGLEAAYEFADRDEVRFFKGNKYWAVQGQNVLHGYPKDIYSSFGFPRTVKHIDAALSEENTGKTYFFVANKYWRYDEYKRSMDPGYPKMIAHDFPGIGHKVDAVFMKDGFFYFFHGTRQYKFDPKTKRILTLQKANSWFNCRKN

keratinocytes = assay: Keratinocyte migration, Boyden chambers; assay type: cell-based; details: for inhibition of keratinocyte migration, dose dependence: Boyden chamber and scratch assays
Method: Compounds 1 and 2 were used to examine the functional effects of processing by BMP-1 related proteins on keratinocyte migration. […] Keratinocytes were analyzed for migration in Boyden chambers in the presence of increasing amounts of the inhibitors. […] (Koivunen et al. (1999) Nature Biotechnology 17:768-774.)

BMP-1 = biological target: T2, BMP-1 (Homo sapiens, UniProt P13497); assay: Inhibition of BMP-1 activity, enzyme-based assays of collagen proteolysis; assay type: biochemical
T2 sequence (P13497 121-730 isoform P13497-2 limits assumed): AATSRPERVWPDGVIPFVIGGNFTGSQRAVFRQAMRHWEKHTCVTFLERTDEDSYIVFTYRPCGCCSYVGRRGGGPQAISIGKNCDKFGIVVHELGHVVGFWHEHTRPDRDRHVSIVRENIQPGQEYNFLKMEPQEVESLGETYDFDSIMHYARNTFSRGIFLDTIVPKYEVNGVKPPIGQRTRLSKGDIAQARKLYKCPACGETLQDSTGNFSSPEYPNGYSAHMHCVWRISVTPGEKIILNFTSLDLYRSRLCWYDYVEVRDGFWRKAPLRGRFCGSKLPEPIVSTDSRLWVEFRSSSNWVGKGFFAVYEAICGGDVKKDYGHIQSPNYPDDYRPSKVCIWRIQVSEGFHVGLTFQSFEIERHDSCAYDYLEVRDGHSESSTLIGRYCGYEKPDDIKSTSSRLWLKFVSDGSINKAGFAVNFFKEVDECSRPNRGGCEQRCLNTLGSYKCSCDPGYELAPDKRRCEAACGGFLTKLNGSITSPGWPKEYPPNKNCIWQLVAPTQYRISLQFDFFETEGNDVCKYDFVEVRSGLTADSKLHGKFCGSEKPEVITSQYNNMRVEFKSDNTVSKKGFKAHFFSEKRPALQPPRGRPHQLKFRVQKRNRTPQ

MMP-2 = biological target: T3, MMP-2 (Homo sapiens, UniProt P08253); assay: Inhibition of MMP-2 activity; assay type: biochemical
T3 sequence (P08253 110-660): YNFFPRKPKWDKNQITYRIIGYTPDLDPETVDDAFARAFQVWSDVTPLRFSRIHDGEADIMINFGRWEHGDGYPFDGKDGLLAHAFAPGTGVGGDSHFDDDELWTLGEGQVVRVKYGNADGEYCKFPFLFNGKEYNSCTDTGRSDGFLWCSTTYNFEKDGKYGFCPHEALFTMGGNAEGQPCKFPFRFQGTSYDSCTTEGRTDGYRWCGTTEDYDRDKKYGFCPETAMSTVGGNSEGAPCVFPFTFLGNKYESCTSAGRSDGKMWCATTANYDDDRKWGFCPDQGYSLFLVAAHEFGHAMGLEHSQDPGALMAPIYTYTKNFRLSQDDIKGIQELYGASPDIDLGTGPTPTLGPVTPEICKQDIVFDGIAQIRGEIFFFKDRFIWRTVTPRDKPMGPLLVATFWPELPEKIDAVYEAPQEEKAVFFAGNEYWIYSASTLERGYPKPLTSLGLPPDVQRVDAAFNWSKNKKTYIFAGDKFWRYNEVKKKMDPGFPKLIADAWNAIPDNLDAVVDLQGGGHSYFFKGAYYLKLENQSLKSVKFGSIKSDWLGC

[2] = biological target: unprocessed human laminin 5 (α3 chain of 200 kDa, β3 chain of 140 kDa, γ2 chain of 155 kDa), Q16787
Chain of unprocessed human laminin 5 (α3 chain of 200 kDa, β3 chain of 140 kDa, γ2 chain of 155 kDa), Q16787 (Q16787 whole entry, looked up): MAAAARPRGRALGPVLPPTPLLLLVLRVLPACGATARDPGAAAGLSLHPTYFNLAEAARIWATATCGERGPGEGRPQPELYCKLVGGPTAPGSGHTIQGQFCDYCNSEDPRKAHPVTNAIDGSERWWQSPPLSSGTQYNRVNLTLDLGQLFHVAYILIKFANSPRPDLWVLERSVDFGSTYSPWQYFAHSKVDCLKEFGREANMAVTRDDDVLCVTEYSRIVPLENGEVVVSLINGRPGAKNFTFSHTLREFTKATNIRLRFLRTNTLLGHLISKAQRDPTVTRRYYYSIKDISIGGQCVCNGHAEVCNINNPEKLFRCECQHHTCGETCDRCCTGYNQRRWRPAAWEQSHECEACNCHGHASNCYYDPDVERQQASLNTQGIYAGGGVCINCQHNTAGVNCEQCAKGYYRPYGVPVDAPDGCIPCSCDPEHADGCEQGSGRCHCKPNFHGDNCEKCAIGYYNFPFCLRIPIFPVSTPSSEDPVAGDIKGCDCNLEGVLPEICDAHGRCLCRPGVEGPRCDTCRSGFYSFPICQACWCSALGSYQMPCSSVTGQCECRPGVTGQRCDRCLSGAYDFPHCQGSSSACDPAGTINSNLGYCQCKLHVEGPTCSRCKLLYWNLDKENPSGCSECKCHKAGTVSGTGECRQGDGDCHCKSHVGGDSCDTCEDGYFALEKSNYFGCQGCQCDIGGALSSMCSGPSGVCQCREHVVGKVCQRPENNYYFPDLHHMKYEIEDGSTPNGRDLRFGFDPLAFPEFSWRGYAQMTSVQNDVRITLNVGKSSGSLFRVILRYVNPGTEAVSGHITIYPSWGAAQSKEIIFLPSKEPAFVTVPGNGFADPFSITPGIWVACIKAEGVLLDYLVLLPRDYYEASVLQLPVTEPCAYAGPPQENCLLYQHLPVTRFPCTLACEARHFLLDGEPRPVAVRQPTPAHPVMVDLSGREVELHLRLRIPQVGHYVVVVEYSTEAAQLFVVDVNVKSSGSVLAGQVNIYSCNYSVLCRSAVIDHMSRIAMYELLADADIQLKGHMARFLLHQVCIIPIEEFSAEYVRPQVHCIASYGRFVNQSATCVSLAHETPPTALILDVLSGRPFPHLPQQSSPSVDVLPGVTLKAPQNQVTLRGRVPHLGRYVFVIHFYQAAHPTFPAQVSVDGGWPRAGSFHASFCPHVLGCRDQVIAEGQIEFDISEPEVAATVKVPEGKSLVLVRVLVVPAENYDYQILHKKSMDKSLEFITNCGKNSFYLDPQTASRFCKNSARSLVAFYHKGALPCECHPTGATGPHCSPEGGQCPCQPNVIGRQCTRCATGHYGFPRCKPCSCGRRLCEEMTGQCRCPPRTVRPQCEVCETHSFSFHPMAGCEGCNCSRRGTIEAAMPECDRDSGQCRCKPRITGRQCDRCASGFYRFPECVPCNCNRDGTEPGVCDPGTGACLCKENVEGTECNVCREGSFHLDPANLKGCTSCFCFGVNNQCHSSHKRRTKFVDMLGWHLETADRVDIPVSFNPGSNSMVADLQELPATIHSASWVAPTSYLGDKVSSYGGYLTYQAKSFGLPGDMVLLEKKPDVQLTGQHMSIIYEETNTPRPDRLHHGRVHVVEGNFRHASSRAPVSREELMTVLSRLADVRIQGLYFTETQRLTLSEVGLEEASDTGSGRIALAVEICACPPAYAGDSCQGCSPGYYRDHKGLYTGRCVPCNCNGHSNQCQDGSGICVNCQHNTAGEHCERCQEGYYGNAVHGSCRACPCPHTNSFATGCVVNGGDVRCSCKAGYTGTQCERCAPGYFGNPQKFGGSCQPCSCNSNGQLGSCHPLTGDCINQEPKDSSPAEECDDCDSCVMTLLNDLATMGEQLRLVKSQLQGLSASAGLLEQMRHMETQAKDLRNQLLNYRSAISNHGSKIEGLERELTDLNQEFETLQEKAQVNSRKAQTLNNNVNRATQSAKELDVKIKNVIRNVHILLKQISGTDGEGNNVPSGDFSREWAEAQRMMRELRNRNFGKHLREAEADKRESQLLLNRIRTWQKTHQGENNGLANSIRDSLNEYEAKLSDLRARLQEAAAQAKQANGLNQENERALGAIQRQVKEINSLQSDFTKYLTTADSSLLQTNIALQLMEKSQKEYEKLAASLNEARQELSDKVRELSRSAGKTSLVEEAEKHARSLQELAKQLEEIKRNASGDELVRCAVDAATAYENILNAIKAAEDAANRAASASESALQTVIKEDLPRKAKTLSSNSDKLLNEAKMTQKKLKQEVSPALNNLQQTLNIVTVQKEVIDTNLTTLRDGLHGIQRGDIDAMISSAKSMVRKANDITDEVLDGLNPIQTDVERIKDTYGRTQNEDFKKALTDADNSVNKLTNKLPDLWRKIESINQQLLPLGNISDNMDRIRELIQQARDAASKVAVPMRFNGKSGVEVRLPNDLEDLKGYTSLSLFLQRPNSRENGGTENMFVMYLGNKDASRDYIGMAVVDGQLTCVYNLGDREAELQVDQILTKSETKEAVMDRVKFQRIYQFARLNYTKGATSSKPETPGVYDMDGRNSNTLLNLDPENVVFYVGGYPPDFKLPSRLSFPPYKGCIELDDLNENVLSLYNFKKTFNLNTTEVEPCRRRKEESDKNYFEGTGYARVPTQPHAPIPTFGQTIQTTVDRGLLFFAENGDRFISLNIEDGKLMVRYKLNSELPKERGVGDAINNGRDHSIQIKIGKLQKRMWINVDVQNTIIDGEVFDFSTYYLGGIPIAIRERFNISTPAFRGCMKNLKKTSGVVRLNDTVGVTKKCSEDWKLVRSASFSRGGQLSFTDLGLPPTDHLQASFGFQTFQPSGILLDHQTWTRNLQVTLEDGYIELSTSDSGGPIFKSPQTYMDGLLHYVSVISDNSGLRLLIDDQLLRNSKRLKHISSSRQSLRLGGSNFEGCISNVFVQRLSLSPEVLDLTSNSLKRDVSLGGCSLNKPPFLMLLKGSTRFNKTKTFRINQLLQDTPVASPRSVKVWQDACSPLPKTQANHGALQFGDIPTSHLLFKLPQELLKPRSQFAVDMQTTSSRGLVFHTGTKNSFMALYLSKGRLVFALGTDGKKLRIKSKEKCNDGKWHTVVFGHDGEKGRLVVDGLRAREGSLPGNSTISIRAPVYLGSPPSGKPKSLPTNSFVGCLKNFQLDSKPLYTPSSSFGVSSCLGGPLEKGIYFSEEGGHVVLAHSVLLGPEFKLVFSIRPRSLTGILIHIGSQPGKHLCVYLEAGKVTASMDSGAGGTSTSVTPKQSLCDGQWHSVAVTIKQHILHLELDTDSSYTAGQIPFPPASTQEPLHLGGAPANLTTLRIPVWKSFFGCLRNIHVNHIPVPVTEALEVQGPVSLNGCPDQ

Chain of unprocessed human laminin 5 (α3 chain of 200 kDa, β3 chain of 140 kDa, γ2 chain of 155 kDa) (Q16787 whole entry, looked up): as above
Chain of MMP-9 (P14780 94-707, species assumed): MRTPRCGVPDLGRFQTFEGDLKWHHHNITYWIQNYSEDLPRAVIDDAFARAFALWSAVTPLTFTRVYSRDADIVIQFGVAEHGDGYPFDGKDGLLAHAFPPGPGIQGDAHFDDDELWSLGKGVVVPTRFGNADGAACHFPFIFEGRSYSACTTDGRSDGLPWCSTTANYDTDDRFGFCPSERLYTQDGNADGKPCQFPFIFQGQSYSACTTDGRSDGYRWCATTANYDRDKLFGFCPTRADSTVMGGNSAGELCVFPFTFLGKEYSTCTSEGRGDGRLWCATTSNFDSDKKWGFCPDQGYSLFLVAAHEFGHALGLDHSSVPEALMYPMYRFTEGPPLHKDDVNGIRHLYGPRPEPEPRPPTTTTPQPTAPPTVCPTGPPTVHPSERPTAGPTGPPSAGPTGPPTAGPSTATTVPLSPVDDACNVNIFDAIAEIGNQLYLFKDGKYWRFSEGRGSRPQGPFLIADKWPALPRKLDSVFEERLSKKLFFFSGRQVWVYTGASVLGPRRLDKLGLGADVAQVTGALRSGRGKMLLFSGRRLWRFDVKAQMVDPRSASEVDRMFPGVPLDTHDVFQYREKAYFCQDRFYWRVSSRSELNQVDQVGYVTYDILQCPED

Molecule: MMP-2
- digestion of type IV collagen (positive control, data not shown) (type IV collagen): MMP-2 completely digested an equimolar quantity of type IV collagen under the same conditions
- processing of collagen IV (type IV collagen): it readily processed collagen XVII and collagen IV
- processing of collagen XVII (collagen XVII): it readily processed collagen XVII and collagen IV
- cleavage of human laminin 5 [1]: it failed to cleave human laminin 5, even at six times the enzyme-to-substrate ratio used for BMP-1 cleavage studies
- digestion of laminin 5 (100 ng/ml MMP-2, 37° C., 16 hours, western blot) [1]: no digestion of laminin 5 was seen with 100 ng/ml MMP-2 (over three times the amount of BMP-1 on a molar basis)

Molecule: human mammalian tolloid (mTld)
- cleavage of the α3 chain of laminin 5 (matrix digestion, western blot) [1]: BMP-1, mTld, mTll-1, and mTLL-2 all cleaved the α3 chain of laminin 5

- inhibition of activity of MMP-9 (MMP-9): no inhibition
- inhibition of activity of MT1-MMP (MT1-MMP): no inhibition
- inhibition of activity of MMP-1 (MMP-1): no inhibition
- inhibition of BMP-1 activity (BMP-1): showed inhibition of BMP-1 activity
- inhibition of activity of MMP-2 (MMP-2): no inhibition
Molecule: O=C(CCCC1C(=O)N(C23CC4CC(CC(C4)C2)C3)C(=O)N1Cc1ccccn1)NO (stereo not drawn) [Compound 1]
- toxicity to cultured cells at 100 times inhibitory levels (cultured cells): nontoxic
- toxic effect on cells (cultured cells): nontoxic; also recorded: no toxic effect on cells
- inhibition of migration of squamous carcinoma cells (squamous carcinoma cells): potently inhibit
- inhibition of keratinocyte migration (keratinocytes): potently inhibit
- inhibition of keratinocyte migration, dose dependence (keratinocytes): inhibition of KC migration in a dose-dependent manner
- dose required to achieve nearly complete inhibition of migration (keratinocytes; Boyden chambers): 23 µM
- inhibition of migration of keratinocytes, dose dependence (keratinocytes; Boyden chambers, 0, 10, 23 μM): dose dependent

Molecule: COc1ccc(CCN(CCC(=O)NO)S(=O)(=O)c2ccc(C(N)=NO)cc2)cc1 [Compound 3]
- inhibition of activity of MMP-9 (MMP-9): no inhibition
- toxicity to cultured cells at 100 times inhibitory levels (cultured cells): nontoxic
- toxic effect on cells (cultured cells): low cytotoxicity; also recorded: no toxic effect on cells
- inhibition of migration of squamous carcinoma cells (squamous carcinoma cells): potently inhibit
- inhibition of activity of MT1-MMP (MT1-MMP): no inhibition
- inhibition of activity of MMP-1 (MMP-1): no inhibition
- inhibition of keratinocyte migration (keratinocytes): potently inhibit
- inhibition of keratinocyte migration, dose dependence (keratinocytes): inhibition of KC migration in a dose-dependent manner
- inhibition of BMP-1 activity (BMP-1): showed inhibition of BMP-1 activity
- potency of BMP-1 inhibition relative to the other compounds (BMP-1): slightly less potent
- inhibition of activity of MMP-2 (MMP-2): no inhibition

B1: human mammalian tolloid-like-1 (mTll-1) (protein)
chain: AATSRTERIWPGGVIPYVIGGNFTGSQRAMFKQAMRHWEKHTCVTFIERSDEESYIVFTYRPCGCCSYVGRRGNGPQAISIGKNCDKFGIVVHELGHVIGFWHEHTRPDRDNHVTIIRENIQPGQEYNFLKMEPGEVNSLGERYDFDSIMHYARNTFSRGMFLDTILPSRDDNGIRPAIGQRTRLSKGDIAQARKLYRCPACGETLQESNGNLSSPGFPNGYPSYTHCIWRVSVTPGEKIVLNFTTMDLYKSSLCWYDYIEVRDGYWRKSPLLGRFCGDKLPEVLTSTDSRMWIEFRSSSNWVGKGFAAVYEAICGGEIRKNEGQIQSPNYPDDYRPMKECVWKITVSESYHVGLTFQSFEIERHDNCAYDYLEVRDGTSENSPLIGRFCGYDKPEDIRSTSNTLWMKFVSDGTVNKAGFAANFFKEEDECAKPDRGGCEQRCLNTLGSYQCACEPGYELGPDRRSCEAACGGLLTKLNGTITTPGWPKEYPPNKNCVWQVVAPTQYRISVKFEFFELEGNEVCKYDYVEIWSGLSSESKLHGKFCGAEVPEVITSQFNNMRIEFKSDNTVSKKGFKAHFFSDKDECSKDNGGCQHECVNTMGSYMCQCRNGFVLHDNKHDCKEAECEQKIHSPSGLITSPNWPDKYPSRKECTWEISATPGHRIKLAFSEFEIEQHQECAYDHLEVFDGETEKSPILGRLCGNKIPDPLVATGNKMFVRFVSDASVQRKGFQATHSTECGGRLKAESKPRDLYSHAQFGDNNYPGQVDCEWLLVSERGSRLELSFQTFEVEEEADCGYDYVELFDGLDSTAVGLGRFCGSGPPEEIYSIGDSVLIHFHTDDTINKKGFHIRYKSIRYPDTTHTKK
- cleavage of the α3 chain of laminin 5 (matrix digestion, western blot) [2]: BMP-1, mTld, mTll-1, and mTLL-2 all cleaved the α3 chain of laminin 5

B2: human mammalian tolloid-like-2 (mTll-2) (protein)
chain: ATTSRTERIWPGGVIPYVIGGNFTGSQRAIFKQAMRHWEKHTCVTFIERTDEESFIVFSYRTCGCCSYVGRRGGGPQAISIGKNCDKFGIVAHELGHVVGFWHEHTRPDRDQHVTIIRENIQPGQEYNFLKMEAGEVSSLGETYDFDSIMHYARNTFSRGVFLDTILPRQDDNGVRPTIGQRVRLSQGDIAQARKLYKCPACGETLQDTTGNFSAPGFPNGYPSYSHCVWRISVTPGEKIVLNFTSMDLFKSRLCWYDYVEVRDGYWRKAPLLGRFCGDKIPEPLVSTDSRLWVEFRSSSNILGKGFFAAYEATCGGDMNKDAGQIQSPNYPDDYRPSKECVWRITVSEGFHVGLTFQAFEIERHDSCAYDYLEVRDGPTEESALIGHFCGYEKPEDVKSSSNRLWMKFVSDGSINKAGFAANFFKEVDECSWPDHGGCEHRCVNTLGSYKCACDPGYELAADKKMCEVACGGFITKLNGTITSPGWPKEYPTNKNCVWQVVAPAQYRISLQFEVFELEGNDVCKYDFVEVRSGLSPDAKLHGRFCGSETPEVITSQSNNMRVEFKSDNTVSKRGFRAHFFSDKDECAKDNGGCQHECVNTFGSYLCRCRNGYWLHENGHDCKEAGCAHKISSVEGTLASPNWPDKYPSRRECTWNISSTAGHRVKLTFNEFEIEQHQECAYDHLEMYDGPDSLAPILGRFCGSKKPDPTVASGSSMFLRFYSDASVQRKGFQAVHSTECGGRLKAEVQTKELYSHAQFGDNNYPSEARCDWVIVAEDGYGVELTFRTFEVEEEADCGYDYMEAYDGYDSSAPRLGRFCGSGPLEEIYSAGDSLMIRFRTDDTINKKGFHARYTSTKFQDALHMKK
- cleavage activity toward the α3 chain and γ2 chain of laminin 5, compared with the other BMP-1 related proteins [2]: mTll-2 showed more potent cleavage activity toward the α3 chain and γ2 chain of laminin 5 compared to the other BMP-1 related proteins
- cleavage of the α3 chain of laminin 5 (matrix digestion, western blot) [2]: BMP-1, mTld, mTll-1, and mTLL-2 all cleaved the α3 chain of laminin 5
- cleavage of the γ2 chain of laminin 5 (matrix digestion, western blot) [2]: BMP-1 and mTLL-2 cleaved the γ2 chain of laminin 5

B3: human BMP-1 (bone morphogenetic protein-1) (protein)
chain: T2 sequence (P13497 121-730 isoform P13497-2 limits assumed)
- cleavage of the α3 chain of laminin 5 (matrix digestion, western blot) [2]: BMP-1, mTld, mTll-1, and mTLL-2 all cleaved the α3 chain of laminin 5
- cleavage of the γ2 chain of laminin 5 (matrix digestion, western blot) [2]: BMP-1 and mTLL-2 cleaved the γ2 chain of laminin 5
- processing of the laminin 5 α3 chain (about 1 µg laminin 5 with 30 ng/ml BMP-1, 16 hours at 37° C., western blot) [2]: laminin α3 chain was completely processed from 200 kDa to 165 kDa by BMP-1
